Literature values in patent publication US11523999B2, “Compositions comprising a fatty aged oil mixture and a free fatty acid, and methods and uses thereof” (Pronova Biopharma Norge AS, priority 2009, dated 2022).
Where “and” joins values, the source holds several entries; their conditions need not be identical. Identical values can stand only once.

Settings: for HBL Value: Other surfactants, Table 7; for HLB Value: Span surfactants, Table 3

| Compound | HBL Value | HLB Value |
| --- | --- | --- |
| CCCCCCCCCCCCCCCC[N+](C)(C)C.[Br-] [Cetrimonium bromide] | 23.3 |  |
| CCCCCCCCCCCCCCCCCC(=O)OCCOC(=O)CCCCCCCCCCCCCCCCC [Ethylene glycol distearate] | 1.5 |  |
| CCCCCCCCCCCCOS(=O)(=O)[O-].[Na+] [Sodium lauryl sulphate] | 40 |  |
| sorbitan monostearate [Span ® 60] |  | 4.7 |
| Propylene glycol monostearate | 3.4 |  |
| sorbitan monopalmitate [Span ® 40] |  | 6.7 |
| sorbitan monooleate [Span ® 80] |  | 4.3 |
| CCCCCCCCCCCC(=O)OCCOCCO [Diethylene glycol monolaurate] | 6.1 |  |
| CCCCCCCCCCCCCCCCCC(=O)OCC(O)CO (stereo not drawn) [Glyceryl monostearate] | 3.3 and 3.8 |  |
